# Entries after “also recorded” stand apart in the source; their conditions may differ.
# Target: PA ATP synthase (Pseudomonas aeruginosa, UniProt Q9HT15)
# Assay: ATP synthesis assay with PA inverted membrane vesicles
# Assay type: biochemical
# Settings: not given
row,Compound,IC50 [µM]
1,"COc1nc2ccccc2cc1/C=N/NC(=O)c1ccccc1 [Compound 10, (E)-N′-((2-Methoxyquinolin-3-yl)methylene)benzohydrazide]",6.55 to 55.7

# Same assay, conditions: 128 μg/mL compound
row,Compound,extent of inhibition of ATP synthesis activity at highest concentration
1,"COC(=O)[C@@H](NCc1cc2ccccc2nc1OCc1ccccc1)C(C)C [Compound 15, Methyl ((2-(Benzyloxy)quinolin-3-yl)methyl)-L-valinate]",not complete
2,"COC(=O)[C@@H](CCSC)NCc1cc2ccccc2nc1SC [Compound 17, Methyl ((2-(Methylthio)quinolin-3-yl)methyl)-D-methioninate]",not complete
3,"COC(=O)[C@H](Cc1c[nH]c2ccccc12)NCc1cc2ccccc2nc1OC [Compound 18, Methyl ((2-Methoxyquinolin-3-yl)methyl)-L-tryptophanate]",complete inhibition
4,"COC(=O)[C@H](Cc1c[nH]c2ccccc12)NCc1cc2ccccc2nc1SC [Compound 19, Methyl ((2-(Methylthio)quinolin-3-yl)methyl)-L-tryptophanate]",not complete
5,"COC(=O)[C@H](Cc1ccc(O)cc1)NCc1cc2ccccc2nc1SC [Compound 22, Methyl ((2-(Methylthio)quinolin-3-yl)methyl)-L-tyrosinate]",complete inhibition

# Same assay, conditions: PA inverted membrane vesicles
row,Compound,inhibition of PA ATP synthase (in words)
1,"COc1nc2ccccc2cc1/C=N/NC(=O)c1ccccc1 [Compound 10, (E)-N′-((2-Methoxyquinolin-3-yl)methylene)benzohydrazide]",dose-dependent inhibition
2,"COC(=O)[C@@H](NCc1cc2ccccc2nc1OCc1ccccc1)C(C)C [Compound 15, Methyl ((2-(Benzyloxy)quinolin-3-yl)methyl)-L-valinate]",dose-dependent inhibition; also recorded: active
3,"COC(=O)[C@@H](CCSC)NCc1cc2ccccc2nc1SC [Compound 17, Methyl ((2-(Methylthio)quinolin-3-yl)methyl)-D-methioninate]",dose-dependent inhibition
4,"COC(=O)[C@H](Cc1c[nH]c2ccccc12)NCc1cc2ccccc2nc1OC [Compound 18, Methyl ((2-Methoxyquinolin-3-yl)methyl)-L-tryptophanate]",dose-dependent inhibition
5,"COC(=O)[C@H](Cc1c[nH]c2ccccc12)NCc1cc2ccccc2nc1SC [Compound 19, Methyl ((2-(Methylthio)quinolin-3-yl)methyl)-L-tryptophanate]",dose-dependent inhibition
6,"COC(=O)[C@H](Cc1ccc(O)cc1)NCc1cc2ccccc2nc1OCc1ccccc1 [Compound 21, Methyl ((2-(Benzyloxy)quinolin-3-yl)methyl)-L-tyrosinate]",not active
7,"COC(=O)[C@H](Cc1ccc(O)cc1)NCc1cc2ccccc2nc1SC [Compound 22, Methyl ((2-(Methylthio)quinolin-3-yl)methyl)-L-tyrosinate]",dose-dependent inhibition; also recorded: active; also recorded: strongest activity

# Tested on: PA
# Assay: Adjuvant assay with pentamidine, PA growth in liquid culture
# Assay type: cell-based, Pseudomonas aeruginosa
# Settings: 50 and 100 μM pentamidine, compared to compound alone
row,Compound,reduction of PA growth when co-dosed with pentamidine (in words)
1,"COC(=O)[C@@H](NCc1cc2ccccc2nc1OCc1ccccc1)C(C)C [Compound 15, Methyl ((2-(Benzyloxy)quinolin-3-yl)methyl)-L-valinate]",no significant reduction in growth
2,"COC(=O)[C@@H](CCSC)NCc1cc2ccccc2nc1SC [Compound 17, Methyl ((2-(Methylthio)quinolin-3-yl)methyl)-D-methioninate]",statistically significant reduction
3,"COC(=O)[C@H](Cc1c[nH]c2ccccc12)NCc1cc2ccccc2nc1OC [Compound 18, Methyl ((2-Methoxyquinolin-3-yl)methyl)-L-tryptophanate]",statistically significant reduction; also recorded: largest reduction in PA growth of the set
4,"COC(=O)[C@H](Cc1c[nH]c2ccccc12)NCc1cc2ccccc2nc1SC [Compound 19, Methyl ((2-(Methylthio)quinolin-3-yl)methyl)-L-tryptophanate]",statistically significant reduction
5,"COC(=O)[C@H](Cc1ccc(O)cc1)NCc1cc2ccccc2nc1SC [Compound 22, Methyl ((2-(Methylthio)quinolin-3-yl)methyl)-L-tyrosinate]",statistically significant reduction

# Tested on: electron transport chain in PA vesicles
# Assay: Electron transport chain activity
# Assay type: biochemical, Pseudomonas aeruginosa
# Settings: 64 μg/mL compound, NADH
row,Compound,H+ gradient formation by the electron transport chain
1,"COc1nc2ccccc2cc1/C=N/NC(=O)c1ccccc1 [Compound 10, (E)-N′-((2-Methoxyquinolin-3-yl)methylene)benzohydrazide]",significant inhibition

# Tested on: PA
# Assay: not given
# Settings: PA; cited from earlier work
row,Compound,MIC [µg/mL]
1,"COc1nc2ccccc2cc1/C=N/N=C/c1cc2ccccc2nc1OC [Compound 11, (1E,2E)-1,2-Bis((2-methoxyquinolin-3-yl)methylene)hydrazine]",80

# Same assay, conditions: compared with 11; cited from earlier work
row,Compound,activity against PA (in words)
1,"COc1nc2ccccc2cc1/C=N/NC(N)=S [Compound 12, (E)-2-((2-Methoxyquinolin-3-yl)methylene)hydrazine-1-carbothioamide]",weaker activity

# Tested on: methicillin susceptible SA (MSSA), S. aureus ATCC 29213
# Assay: Broth microdilution MIC assay against MSSA
# Settings: Staphylococcus aureus, ATCC29213|MSSA, read-out: MSSA MIC
row,Compound,MIC [µg/mL]
1,"CSc1nc2ccccc2cc1C=O [Compound 6, 2-(Methylthio)quinoline-3-carbaldehyde]",64
2,"CCOC(=O)C1=C(C)NC(=O)NC1c1cc2ccccc2nc1OC (stereo not shown) [Compound 9, Ethyl 4-(2-Methoxyquinolin-3-yl)-6-methyl-2-oxo-1,2,3,4-tetrahydropyrimidine-5-carboxylate]",> 128
3,"COc1nc2ccccc2cc1/C=N/NC(=O)c1ccccc1 [Compound 10, (E)-N′-((2-Methoxyquinolin-3-yl)methylene)benzohydrazide]",> 128
4,"COc1nc2ccccc2cc1/C=N/N=C/c1cc2ccccc2nc1OC [Compound 11, (1E,2E)-1,2-Bis((2-methoxyquinolin-3-yl)methylene)hydrazine]",> 128
5,"COc1nc2ccccc2cc1/C=N/NC(N)=S [Compound 12, (E)-2-((2-Methoxyquinolin-3-yl)methylene)hydrazine-1-carbothioamide]",> 128
6,"COC(=O)[C@H](C)NCc1cc2ccccc2nc1OC [Compound 14, Methyl ((2-Methoxyquinolin-3-yl)methyl)-L-alaninate]",> 128
7,"COC(=O)[C@@H](NCc1cc2ccccc2nc1OCc1ccccc1)C(C)C [Compound 15, Methyl ((2-(Benzyloxy)quinolin-3-yl)methyl)-L-valinate]",> 128
8,"COC(=O)[C@@H](CCSC)NCc1cc2ccccc2nc1OC [Compound 16, Methyl ((2-Methoxyquinolin-3-yl)methyl)-D-methioninate]",> 128
9,"COC(=O)[C@@H](CCSC)NCc1cc2ccccc2nc1SC [Compound 17, Methyl ((2-(Methylthio)quinolin-3-yl)methyl)-D-methioninate]",64
10,"COC(=O)[C@H](Cc1c[nH]c2ccccc12)NCc1cc2ccccc2nc1OC [Compound 18, Methyl ((2-Methoxyquinolin-3-yl)methyl)-L-tryptophanate]",> 128
11,"COC(=O)[C@H](Cc1c[nH]c2ccccc12)NCc1cc2ccccc2nc1SC [Compound 19, Methyl ((2-(Methylthio)quinolin-3-yl)methyl)-L-tryptophanate]",> 128
12,"COC(=O)[C@H](Cc1ccc(O)cc1)NCc1cc2ccccc2nc1OC [Compound 20, Methyl ((2-Methoxyquinolin-3-yl)methyl)-L-tyrosinate]",> 128
13,"COC(=O)[C@H](Cc1ccc(O)cc1)NCc1cc2ccccc2nc1OCc1ccccc1 [Compound 21, Methyl ((2-(Benzyloxy)quinolin-3-yl)methyl)-L-tyrosinate]",> 128
14,"COC(=O)[C@H](Cc1ccc(O)cc1)NCc1cc2ccccc2nc1SC [Compound 22, Methyl ((2-(Methylthio)quinolin-3-yl)methyl)-L-tyrosinate]",> 128
15,"COC(=O)[C@@H](Cc1c[nH]cn1)NCc1cc2ccccc2nc1OC [Compound 23, Methyl ((2-Methoxyquinolin-3-yl)methyl)-D-histidinate]",> 128

# Same assay, conditions: n = 3; >85% reduction in growth at OD 590 nm
row,Compound,MSSA MIC [µg/mL]
1,(E)-2-(2-((2-Methoxyquinolin-3-yl)methylene)hydrazineyl)-4-phenylthiazole [Compound 13],>128

# Tested on: wild-type PA (WTPA), P. aeruginosa ATCC 9027
# Assay: Broth microdilution MIC assay against WTPA
# Settings: Pseudomonas aeruginosa, ATCC9027, read-out: WTPA MIC
row,Compound,MIC [µg/mL]
1,"CCOC(=O)C1=C(C)NC(=O)NC1c1cc2ccccc2nc1OC (stereo not shown) [Compound 9, Ethyl 4-(2-Methoxyquinolin-3-yl)-6-methyl-2-oxo-1,2,3,4-tetrahydropyrimidine-5-carboxylate]",> 128
2,"COc1nc2ccccc2cc1/C=N/NC(=O)c1ccccc1 [Compound 10, (E)-N′-((2-Methoxyquinolin-3-yl)methylene)benzohydrazide]",> 128
3,"COc1nc2ccccc2cc1/C=N/N=C/c1cc2ccccc2nc1OC [Compound 11, (1E,2E)-1,2-Bis((2-methoxyquinolin-3-yl)methylene)hydrazine]",> 128
4,"COc1nc2ccccc2cc1/C=N/NC(N)=S [Compound 12, (E)-2-((2-Methoxyquinolin-3-yl)methylene)hydrazine-1-carbothioamide]",> 128
5,"COC(=O)[C@H](C)NCc1cc2ccccc2nc1OC [Compound 14, Methyl ((2-Methoxyquinolin-3-yl)methyl)-L-alaninate]",> 128
6,"COC(=O)[C@@H](NCc1cc2ccccc2nc1OCc1ccccc1)C(C)C [Compound 15, Methyl ((2-(Benzyloxy)quinolin-3-yl)methyl)-L-valinate]",> 256
7,"COC(=O)[C@@H](CCSC)NCc1cc2ccccc2nc1OC [Compound 16, Methyl ((2-Methoxyquinolin-3-yl)methyl)-D-methioninate]",> 128
8,"COC(=O)[C@@H](CCSC)NCc1cc2ccccc2nc1SC [Compound 17, Methyl ((2-(Methylthio)quinolin-3-yl)methyl)-D-methioninate]",> 256
9,"COC(=O)[C@H](Cc1c[nH]c2ccccc12)NCc1cc2ccccc2nc1OC [Compound 18, Methyl ((2-Methoxyquinolin-3-yl)methyl)-L-tryptophanate]",> 256
10,"COC(=O)[C@H](Cc1c[nH]c2ccccc12)NCc1cc2ccccc2nc1SC [Compound 19, Methyl ((2-(Methylthio)quinolin-3-yl)methyl)-L-tryptophanate]",> 256
11,"COC(=O)[C@H](Cc1ccc(O)cc1)NCc1cc2ccccc2nc1OC [Compound 20, Methyl ((2-Methoxyquinolin-3-yl)methyl)-L-tyrosinate]",> 128
12,"COC(=O)[C@H](Cc1ccc(O)cc1)NCc1cc2ccccc2nc1OCc1ccccc1 [Compound 21, Methyl ((2-(Benzyloxy)quinolin-3-yl)methyl)-L-tyrosinate]",> 128
13,"COC(=O)[C@H](Cc1ccc(O)cc1)NCc1cc2ccccc2nc1SC [Compound 22, Methyl ((2-(Methylthio)quinolin-3-yl)methyl)-L-tyrosinate]",> 256
14,"COC(=O)[C@@H](Cc1c[nH]cn1)NCc1cc2ccccc2nc1OC [Compound 23, Methyl ((2-Methoxyquinolin-3-yl)methyl)-D-histidinate]",> 128

# Same assay, conditions: n = 3; >85% reduction in growth at OD 590 nm
row,Compound,WTPA MIC [µg/mL]
1,(E)-2-(2-((2-Methoxyquinolin-3-yl)methylene)hydrazineyl)-4-phenylthiazole [Compound 13],>128
